Results as given in patent publication US20200199097A1, “POMALIDOMIDE DERIVATIVE AND PREPARATION METHOD THEREFOR” (NANJING NORATECH PARMACEUTICALS CO., LTD, priority 2017, published 2020).
Converted amounts (≈) assume the structure as drawn. Counter-ions that a name gives are not always drawn. Like-named read-outs stand apart in the source and are kept apart here. One block for each compound: values may come before it.

What was measured:
[1] = Determination of solubility in water at room temperature by HPLC; format: physicochemical; conditions: saturated solubility not determined; for solubility: thermodynamic from solid, read-out: Minimum solubility in water at room temperature
Experimental: 1 mg of compound 1 was mixed with 1 mL of water, stirred at room temperature, and completely dissolved, and the supernatant was taken as a test sample solution.
50 mg of the hydrochloride or tromethamine salt of the compound was mixed with 150 μl of water, stirred at room temperature, and completely dissolved, and the supernatant was taken as a test sample solution.
In this test, the saturated solubility of the sample is not determined, but an appropriate amount of the sample is selected to determine the solubility of the sample. […] However, the solubility of pomalidomide in water is about 0.01 mg/ml, which is much lower than the solubility of the compound of the present invention or the salt thereof.

[2] = Determination of stability under different environmental conditions; format: physicochemical
Experimental: An appropriate amount of the sample was independently placed under different environmental conditions, and the percentage of the sample at day 0, 5, 10 or 30 was determined to evaluate the stability of the sample.

[3] = cited from earlier work

Structure (SMILES): Nc1cccc2c1C(=O)N(C1CCC(=O)N(COP(=O)(O)O)C1=O)C2=O (centres unmarked) [Ditromethamine salt of compound 11]
percentage of the sample ([2]; Day 0): 99.9% | percentage of the sample ([2]; Day 5/40° C./60% RH/Dark): 92.8% | percentage of the sample ([2]; Day 5/60° C./75% RH/Dark): 15.6% | percentage of the sample ([2]; Day 5/Light): 99.5% | percentage of the sample ([2]; Day 5/RT/75% RH/Dark): 79.8% | percentage of the sample ([2]; Day 5/RT/92.5% RH/Dark): 78.4% | solubility [1]: > 300 mg/mL

Structure (SMILES): CC(C)[C@H](N)C(=O)OCN1C(=O)CCC(N2C(=O)c3cccc(N)c3C2=O)C1=O (some centres unmarked) [Hydrochloride salt of compound 1]
percentage of the sample ([2]; Day 0): 97.1% | percentage of the sample ([2]; Day 10/40° C./60% RH/Dark): 96.9% | percentage of the sample ([2]; Day 10/60° C./75% RH/Dark): 96.4% | percentage of the sample ([2]; Day 10/Light): 96.7% | percentage of the sample ([2]; Day 10/RT/75% RH/Dark): 96.8% | percentage of the sample ([2]; Day 10/RT/92.5% RH/Dark): 95.5% | percentage of the sample ([2]; Day 30/40° C./60% RH/Dark): 95.1% | percentage of the sample ([2]; Day 30/60° C./75% RH/Dark): 94.7% | percentage of the sample ([2]; Day 30/Light): 95.0% | percentage of the sample ([2]; Day 30/RT/75% RH/Dark): 96.1% | percentage of the sample ([2]; Day 30/RT/92.5% RH/Dark): 93.3% | Minimum solubility in water at room temperature [1]: >300 mg/mL

Structure (SMILES): NCC(=O)OCN1C(=O)CCC(N2C(=O)c3cccc(N)c3C2=O)C1=O (centres unmarked) [Hydrochloride salt of compound 2]
percentage of the sample ([2]; Day 0): 96.1% | percentage of the sample ([2]; Day 10/40° C./60% RH/Dark): 43.5% | percentage of the sample ([2]; Day 10/60° C./75% RH/Dark): 13.3% | percentage of the sample ([2]; Day 10/RT/92.5% RH/Dark): 93.3% | solubility [1]: > 300 mg/mL

Structure (SMILES): CC[C@H](C)[C@H](N)C(=O)OCN1C(=O)CCC(N2C(=O)c3cccc(N)c3C2=O)C1=O (some centres unmarked) [Hydrochloride salt of compound 5]
solubility [1]: > 300 mg/mL

Structure (SMILES): Nc1cccc2c1C(=O)N(C1CCC(=O)NC1=O)C2=O (centres unmarked) [Pomalidomide]
solubility ([3]; 0.1 mol/L hydrochloric acid): 0.0189 mg/mL (≈ 69.2 µM) | solubility ([3]; acetate buffer (pH 4.5)): 0.0187 mg/mL (≈ 68.4 µM) | solubility ([3]; phosphate buffer (pH 6.8)): 0.017 mg/mL (≈ 62.2 µM) | solubility ([3]; purified water): 0.0178 mg/mL (≈ 65.1 µM) | solubility of pomalidomide in water ([3]; water): about 0.01 mg/ml

Further lines, results first:

Minimum solubility in water at room temperature [1]: 1 mg/mL
Structure (SMILES): CC(C)[C@H](N)C(=O)OCN1C(=O)CCC(N2C(=O)c3cccc(N)c3C2=O)C1=O (some centres unmarked) [Compound 1]

solubility [1]: > 300 mg/mL
Structure (SMILES): C[C@H](N)C(=O)OCN1C(=O)CCC(N2C(=O)c3cccc(N)c3C2=O)C1=O (some centres unmarked) [Hydrochloride salt of compound 3]

solubility [1]: > 300 mg/mL
Structure (SMILES): CC(C)C[C@H](N)C(=O)OCN1C(=O)CCC(N2C(=O)c3cccc(N)c3C2=O)C1=O (some centres unmarked) [Hydrochloride salt of compound 4]

solubility [1]: > 300 mg/mL
Structure (SMILES): Nc1cccc2c1C(=O)N(C1CCC(=O)N(COC(=O)[C@@H]3CCCN3)C1=O)C2=O (some centres unmarked) [Hydrochloride salt of compound 6]

solubility [1]: > 300 mg/mL
Structure (SMILES): Nc1cccc2c1C(=O)N(C1CCC(=O)N(COC(=O)[C@@H](N)Cc3ccccc3)C1=O)C2=O (some centres unmarked) [Hydrochloride salt of compound 7]
